Test system: human skin fibroblasts
Assay: migration of human skin fibroblasts in the 3D collagen gel assay
Format: cell-based
Settings: relative to control fibroblasts in the absence of test compound, FIG. 3
Text: The results were plotted and are shown on the graph depicted in FIG. 3 in which compound (IV) is referred to as BDP 1. The data are expressed as fold-stimulation of migration relative to control fibroblasts in the absence of test compound. The range of base-line (control) migration is indicated by the horizontal dotted lines.

Structure (SMILES): COC(=O)CC1Nc2c(cccc2OCCC(C)C)CN(C)C1=O (stereo not shown) [Compound (IV)]
- fold-stimulation of migration relative to control fibroblasts: stimulated target cell migration with a bell-shaped dose-response similar in potency and profile to that of IGDS

Source: US8962615B2, “Cell migration modulating compounds” (University of Dundee, priority 2005, dated 2015)
